According to ChEMBL document CHEMBL1147137, “Structure-activity relationship of uridine 5'-diphosphoglucose analogues as agonists of the human P2Y14 receptor” (J Med Chem, 2007):

Target: T1, P2Y purinoceptor 14 (Homo sapiens, UniProt Q15391)
T1 sequence (Q15391 whole entry): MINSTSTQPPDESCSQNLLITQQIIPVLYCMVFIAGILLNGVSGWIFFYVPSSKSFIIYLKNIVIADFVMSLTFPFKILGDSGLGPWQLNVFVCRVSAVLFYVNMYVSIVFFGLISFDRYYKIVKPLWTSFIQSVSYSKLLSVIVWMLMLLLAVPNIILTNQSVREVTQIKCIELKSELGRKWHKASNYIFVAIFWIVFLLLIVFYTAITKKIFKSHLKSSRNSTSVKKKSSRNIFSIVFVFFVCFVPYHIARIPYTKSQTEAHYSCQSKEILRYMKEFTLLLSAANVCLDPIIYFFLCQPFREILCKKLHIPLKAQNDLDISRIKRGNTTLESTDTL
Test: Agonist activity at human P2Y14 expressed in COS7 cells assessed as stimulation of PLC-mediated [3H]inositol hydrolysis
Format: functional, cell-based, COS-7

SMILES	EC50	EC50 (cos-7)
O=c1ccn([C@@H]2O[C@H](COP(=O)(O)OP(=O)(O)OC[C@@]3(O)O[C@H](CO)[C@@H](O)[C@@H]3O)[C@@H](O)[C@H]2O)c(=O)[nH]1	880 nM (agonist)	
O=C(O)[C@H]1O[C@H](OP(=O)(O)OP(=O)(O)OC[C@H]2O[C@@H](n3ccc(=O)[nH]c3=O)[C@H](O)[C@@H]2O)[C@H](O)[C@@H](O)[C@@H]1O	370 nM (agonist)	
O=c1ccn([C@@H]2O[C@H](COP(=O)(O)OP(=O)(O)O[C@H]3O[C@H](CO)[C@@H](O)[C@H](O)[C@H]3O)[C@@H](O)[C@H]2O)c(=S)[nH]1	49 nM (agonist)	
O=c1[nH]c(=S)ccn1[C@@H]1O[C@H](COP(=O)(O)OP(=O)(O)O[C@H]2O[C@H](CO)[C@@H](O)[C@H](O)[C@H]2O)[C@@H](O)[C@H]1O	350 nM (agonist)	
O=C(O)[C@H]1O[C@H](OP(=O)(O)OP(=O)(O)OC[C@H]2O[C@@H](n3ccc(=O)[nH]c3=S)[C@H](O)[C@@H]2O)[C@H](O)[C@@H](O)[C@@H]1O	420 nM (agonist)	
O=c1ccn([C@@H]2O[C@H](COP(=O)(O)OP(=O)(O)O[C@H]3[C@H](O)[C@@H](O)[C@H](O)[C@@H](O)[C@@H]3O)[C@@H](O)[C@H]2O)c(=O)[nH]1	1880 nM (agonist)	
CSc1ccn([C@@H]2O[C@H](COP(=O)(O)OP(=O)(O)O[C@H]3O[C@H](CO)[C@@H](O)[C@H](O)[C@H]3O)[C@@H](O)[C@H]2O)c(=O)n1	> 10000 nM	
CC(=O)N[C@@H]1[C@H](OP(=O)(O)OP(=O)(O)OC[C@H]2O[C@@H](n3ccc(=O)[nH]c3=O)[C@H](O)[C@@H]2O)O[C@@H](CO)[C@H](O)[C@H]1O (stereo in doubt)		810 nM (agonist)
